Results on seven compounds are retold here after ChEMBL document CHEMBL1629664, “Oral and parenteral therapeutic options for outpatient urinary infections caused by enterobacteriaceae producing CTX-M extended-spectrum beta-lactamases” (2009).

Type in all cases: functional
For assay [1], the system named is Enterobacteriaceae. Description: Antibacterial activity against beta-lactamase SHV or TEM ESBL-producing Enterobacteriaceae by twofold dilution method in presence of beta-lactamase inhibitor clavulanate.
In assay [2] the test system is Enterobacteriaceae. Description: Antibacterial activity against beta-lactamase CTX-M ESBL-producing Enterobacteriaceae by twofold dilution method.
Assay [3] relates to Enterobacteriaceae. Description: Antibacterial activity against beta-lactamase CTX-M ESBL-producing Enterobacteriaceae assessed as percent susceptible isolates by twofold dilution method in presence of beta-lactamase inhibitor clavulanate.
For assay [4], the system named is Enterobacteriaceae. Description: Antibacterial activity against beta-lactamase CTX-M ESBL-producing Enterobacteriaceae by twofold dilution method in presence of beta-lactamase inhibitor clavulanate.
In assay [5] the test system is Enterobacteriaceae. The experiment in a line: Antibacterial activity against beta-lactamase SHV or TEM ESBL-producing Enterobacteriaceae assessed as percent susceptible isolates by twofold dilution method in presence of beta-lactamase inhibitor clavulanate.
Assay [6] relates to Enterobacteriaceae. Description: Antibacterial activity against beta-lactamase SHV or TEM ESBL-producing Enterobacteriaceae by twofold dilution method.
Assay [7] deals with Enterobacteriaceae. Description: Antibacterial activity against beta-lactamase CTX-M ESBL-producing Enterobacteriaceae assessed as percent susceptible isolates by twofold dilution method.
The subject of assay [8] is Enterobacteriaceae. The experiment in a line: Antibacterial activity against beta-lactamase SHV or TEM ESBL-producing Enterobacteriaceae assessed as percent susceptible isolates by twofold dilution method.
Assay [9] deals with Enterobacteriaceae. The experiment in a line: Antibacterial activity against beta-lactamase SHV or TEM ESBL-producing Enterobacteriaceae by broth microdilution method.
Assay [10] concerns Enterobacteriaceae. The experiment in a line: Antibacterial activity against beta-lactamase SHV or TEM ESBL-producing Enterobacteriaceae assessed as percent susceptible isolates by broth microdilution method.
Assay [11] has as its system Enterobacteriaceae. The experiment in a line: Antibacterial activity against beta-lactamase CTX-M ESBL-producing Enterobacteriaceae by broth microdilution method.
The subject of assay [12] is Enterobacteriaceae. The experiment in a line: Antibacterial activity against beta-lactamase CTX-M ESBL-producing Enterobacteriaceae assessed as percent susceptible isolates by broth microdilution method.
Assay [13] deals with Escherichia coli. Description: Antibacterial activity against beta-lactamase ESBL-producing Escherichia coli assessed as percent susceptible isolates by broth microdilution method.
For assay [14], the system named is Proteus mirabilis. Description: Antibacterial activity against beta-lactamase ESBL-producing Proteus mirabilis assessed as percent susceptible isolates by broth microdilution method.
Assay [15] has as its system Klebsiella sp. Description: Antibacterial activity against beta-lactamase ESBL-producing Klebsiella sp. assessed as percent susceptible isolates by broth microdilution method.
Assay [16] concerns Escherichia coli. Description: Antibacterial activity against beta-lactamase ESBL-producing Escherichia coli by broth microdilution method.
Assay [17] deals with Enterobacteriaceae. The experiment in a line: Antibacterial activity against beta-lactamase SHV or TEM ESBL-producing Enterobacteriaceae assessed as percent susceptible isolates by agar dilution method.
For assay [18], the system named is Enterobacteriaceae. Description: Antibacterial activity against beta-lactamase CTX-M ESBL-producing Enterobacteriaceae by agar dilution method.
The test system of assay [19] is Enterobacteriaceae. The experiment in a line: Antibacterial activity against beta-lactamase CTX-M ESBL-producing Enterobacteriaceae assessed as percent susceptible isolates by agar dilution method.
Assay [20] relates to Enterobacteriaceae. Description: Antibacterial activity against beta-lactamase SHV or TEM ESBL-producing Enterobacteriaceae by agar dilution method.

Converted amounts (≈) assume the structure as drawn.

Consider `CC1(C)S[C@@H]2[C@H](NC(=O)[C@H](N)c3ccc(O)cc3)C(=O)N2[C@H]1C(=O)O` [AMOXICILLIN], for which the MIC50 in assay [1] came out at 32 µg/mL; in assay [2], 4 µg/mL (≈ 10.9 µM); in assay [4], 32 µg/mL; in [6], 4 µg/mL (≈ 10.9 µM). Also, the MIC90 in assay [1] came out at 32 µg/mL; in assay [2], 4 µg/mL (≈ 10.9 µM); in assay [4], 32 µg/mL; in assay [6] it was 4 µg/mL (≈ 10.9 µM). Also, the Activity turned out to be 10.9% in assay [3] and 45.5% in assay [5].

`C=CC1=C(C(=O)O)N2C(=O)[C@@H](NC(=O)/C(=N\O)c3csc(N)n3)[C@H]2SC1` [CEFDINIR]: the figures for the MIC50 in assay [2] and in assay [6] were 16 µg/mL (≈ 40.5 µM) and 4 µg/mL (≈ 10.1 µM), respectively. For the same compound, the MIC90 in assay [2] and in assay [6] was 16 µg/mL (≈ 40.5 µM) in each case. Besides, the Activity in [7] and in [8] was 0% in each case.

With `O=C(O)c1cn(C2CC2)c2cc(N3CCNCC3)c(F)cc2c1=O` [CIPROFLOXACIN], the MIC50 in assay [9] and in assay [11] was 32 µg/mL (≈ 96.6 µM) each time. The MIC90 in [9] and in [11] was 32 µg/mL (≈ 96.6 µM) throughout. The Activity in [10] was 36.4%; in assay [12], 4.3%.

Regarding `C[C@H]1c2cccc(O)c2C(=O)C2=C(O)[C@]3(O)C(=O)C(C(N)=O)=C(O)[C@@H](N(C)C)[C@@H]3[C@@H](O)[C@@H]21.O` [DOXYCYCLINE], the MIC50 in assay [9] and in assay [11] was 16 µg/mL throughout. For the same compound, the MIC90 in assay [9] and in assay [11] was 16 µg/mL in each case. The Activity worked out at 18.2% in assay [10] and 10.9% in assay [12].

On to `C[C@@H](O)[C@H]1C(=O)N2C(C(=O)O)=C(S[C@@H]3CN[C@H](C(=O)Nc4cccc(C(=O)O)c4)C3)[C@H](C)[C@H]12` [ERTAPENEM], for which the Activity in [13], in assay [14], in assay [15], in assay [10] and in [12] was 100% each time. Besides, the MIC50 in [9] came to 0.12 µg/mL (≈ 0.252 µM); in [11] it was 0.06 µg/mL (≈ 0.126 µM). Further, the MIC90 was determined as 1 µg/mL (≈ 2.1 µM) in [9], 0.25 µg/mL (≈ 0.526 µM) in [11] and 0.06 µg/mL (≈ 0.126 µM) in assay [16].

On to `C[C@@H]1O[C@@H]1P(=O)(O)O` [FOSFOMYCIN], for which the Activity was 100% in assay [17] and 91.3% in [19]. Further, the MIC50 in assay [18] was 0.5 µg/mL (≈ 3.62 µM); in [20] it was 4 µg/mL (≈ 29 µM). Further, the values for the MIC90 in [18] and in assay [20] were 64 µg/mL (≈ 464 µM) and 8 µg/mL (≈ 57.9 µM), respectively.

`O=C1CN(/N=C/c2ccc([N+](=O)[O-])o2)C(=O)N1` [NITROFURANTOIN]: the MIC50 in assay [9] was 64 µg/mL (≈ 269 µM); in assay [11], 16 µg/mL (≈ 67.2 µM). For the same compound, the MIC90 in assay [9] and in [11] was 64 µg/mL (≈ 269 µM) in each case. Further, the results for the Activity in assay [10] and in [12] were 45.5% and 73.9%, respectively.
